Reference: patent publication US20240208949A1, “COMPOSITIONS, FORMULATIONS, AND METHODS FOR HAIR TREATMENT” (Oddity Labs, LLC, priority 2022, published 2024)

Tests used:
[1] = test system: human hair follicle dermal papilla cells (hFDPC); test: Human follicle dermal papilla cell (hFDPC) proliferation, cell viability assay; type: cell-based; details: hFDPCs from donors 25-83 years old; vs DMSO control
Description: The ability of a compound or salt of the present disclosure to increase proliferation of human hair follicle dermal papilla cells (hFDPC) was tested using a cell viability assay, such as the Promega CellTiter-Glo® Luminescent Cell Viability Assay, MTT cell proliferation assay (ATCC® 30-1010K), or manual cell counting. The compound or salt was added at various concentrations spanning at least a 2-log range. hFDPCs were derived from multiple donors ranging from 25-83 years old and cultured on tissue-treated plastic using predefined growth media supplemented with 6-bromoindirubin-3′-Oxime (BIO), recombinant bone morphogenetic protein-2 (BMP-2), and basic fibroblast growth factor (FGFβ), a combination previously found to preserve in situ dermal papilla gene signatures. […] In TABLE 12, A represents less than 20% increased proliferation of hFDPCs, B represents a 20-40% increase, and C represents more than a 40% increase in the proliferation of hFDPCs.

[2] = Structural stability in solvent mixtures at elevated temperature, LC-UV; type: physicochemical; details: for Purity (LC-UV) after stirring: 80° C., 2 hrs
Description: Additionally, the ability of a compound or salt of the present disclosure was evaluated at room temperature as well as at 60° C. for varying periods of time (FIG. 1B). The structural stability of compound I-1 was further explored by stirring this compound in 2 different solvent mixtures at elevated temperatures for 2 hours. (TABLE 13). The samples were analyzed by LC-UV after stirring for 2 hrs (FIG. 2).

[3] = Stability on open-air storage, LCMS/HPLC-UV; type: physicochemical
Description: A sample was analyzed for stability using LCMS. In both cases, the peak at 1.25 min was determined to be product I-1, while the impurity at 0.66 min was identified as the hydrolysis product 3-B04, as referenced in Scheme 9b. After analysis, the sample was allowed to stand in open air overnight. […] The purity of the compound in FIG. 7B was analyzed to be 95.3% (254 nm), and in FIG. 7D to be 90.61% (254 nm) after standing overnight in air. […] The compound gradually decomposed into compound 3-B04 and propane sulfonic acid.

[4] = Stability in DMI solution, LCMS/HPLC-UV; type: physicochemical
Description: A sample containing compound I-1 was prepared in 1,3-Dimethyl-2-imidazolidinone (DMI), sealed, and stored at room temperature for 7 days. Another sample containing compound I-1 was prepared in DMI and left open for 8 days. The purity of both samples was assessed using LCMS. […] The purity in FIG. 8B was determined to be 92.9%, and the purity in FIG. 8D was also found to be 92.9%.

[5] = Thermal degradation on distillation, NMR; type: physicochemical; details: distillation at 185° C. (after 30 minutes at 160° C.)
Description: Thermal degradation of compound I-1 was evaluated at 160° C. and 185° C. Pure compound I-1 (1.2 g), in the form of a brown oil, was subjected to distillation for 30 minutes at 160° C. When no product was observed, distillation was attempted at 185° C., albeit unsuccessfully.

[6] = Stability in example compositions, HPLC-UV; type: physicochemical; details: compositions of TABLE 2-TABLE 11, 8 months at room temperature
Description: Example of composition (TABLE 2-TABLE 11) preserves the structure and inhibits the hydrolysis of compound I-1, even after storage of 8 months at room temperature.

[7] = target: T1, cytochrome P450 3A4 (CYP3A4) (Homo sapiens, UniProt P08684); test: P450-Glo CYP3A4 Assay and Screening System; type: in vitro ADME; details: 50 or 5 μM
T1 construct: purchased Promega
Description: A P450-Glo™ CYP3A4 Assay and Screening System (Promega) was employed to assess the inhibitory potential of the example compounds against CYP3A4 at concentrations of either 50 or 5 μM. […] Vehicle represents 0.1% DMSO and […] is a known cytochrome P450 3A4 inhibitor .

[8] = test system: primary human follicle dermal papilla cells (hFDPCs); test: ROS-Glo assay, intracellular reactive oxygen species; type: cell-based; details: 50 or 5 μM
Description: A ROS-Glo™ assay (Promega) was employed to assess the production of intracellular reactive oxygen species (ROS) for the example compounds at concentrations of either 50 or 5 μM. […] Vehicle represents 0.1% DMSO and DMNQ represents 2,3-dimethoxy-1,4-naphthalenedione, a known ROS-inducer.

T1 sequence (P08684 whole entry): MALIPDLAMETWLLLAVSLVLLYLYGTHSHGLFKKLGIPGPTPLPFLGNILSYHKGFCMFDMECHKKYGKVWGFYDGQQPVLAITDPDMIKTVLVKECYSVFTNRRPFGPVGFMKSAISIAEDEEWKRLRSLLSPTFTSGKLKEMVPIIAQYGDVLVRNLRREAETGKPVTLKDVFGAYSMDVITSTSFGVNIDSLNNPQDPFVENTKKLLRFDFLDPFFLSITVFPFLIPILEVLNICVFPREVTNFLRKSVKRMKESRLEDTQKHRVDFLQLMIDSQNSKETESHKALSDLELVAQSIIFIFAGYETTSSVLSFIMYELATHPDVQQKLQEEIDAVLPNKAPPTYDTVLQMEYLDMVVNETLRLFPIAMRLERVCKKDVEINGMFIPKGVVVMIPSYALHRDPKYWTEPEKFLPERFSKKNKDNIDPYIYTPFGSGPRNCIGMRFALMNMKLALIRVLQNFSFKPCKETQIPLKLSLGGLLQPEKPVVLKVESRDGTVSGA

With `CSc1nc(-c2ccco2)nn1S(C)(=O)=O` [VII-3] the “Increase Proliferation of hFDPCs (%)” value [1] was “C (C represents more than a 40% increase in the proliferation of hFDPCs)”.

In the case of `COCCSc1nc(-c2ccco2)nn1S(C)(=O)=O` [I-3], the “Increase Proliferation of hFDPCs (%)” value [1] is reported as “C (C represents more than a 40% increase in the proliferation of hFDPCs)”.

In the case of `CCSc1nc(-c2ccco2)nn1S(C)(=O)=O` [I-2], the “Increase Proliferation of hFDPCs (%)” value [1] is reported as “C (C represents more than a 40% increase in the proliferation of hFDPCs)”.

With `CCCS(=O)(=O)n1nc(-c2ccco2)nc1SCCOCCOC` [I-1] the “Increase Proliferation of hFDPCs (%)” value [1] was “C (C represents more than a 40% increase in the proliferation of hFDPCs)”, the “Purity (LC-UV) after stirring” value ([2]; 0.1% (v/v) HCOOH in H2O/0.1% (v/v) HCOOH in MeCN 1:1) was 95% and the “Purity (LC-UV) after stirring” value ([2]; EtOAc/Heptane 1:1) was >99%. The “Degradation in acidic conditions” value ([2]; acidic conditions, 2 hrs elevated temperature) was “minor degradation”, the “Structural stability in organic solvents” value ([2]; organic solvents used for straight phase column chromatography, 2 hrs elevated temperature) was “very stable” and the “Purity (254 nm) after standing overnight in air” value ([3]; 24 hours open-air exposure, room temperature) was 90.61%. The “Purity (254 nm), freshly synthesized material post-workup” value ([3]; before air exposure (baseline)) was 95.3%, the “Stability on storage in open air” value ([3]; room temperature, decomposes into 3-B04 and propane sulfonic acid) was “hydrolyzed upon storage in open air at room temperature” and the “Purity (254 nm) in DMI, left open” value ([4]; 1,3-Dimethyl-2-imidazolidinone (DMI), open air, 8 days) was 92.9%. The “Purity (254 nm) in DMI, sealed” value ([4]; 1,3-Dimethyl-2-imidazolidinone (DMI), sealed, room temperature, 7 days) was 92.9%, the “Stability in DMI” value ([4]; even when solution exposed to air) was “appeared to be stable” and the Thermal degradation [5] was “slightly decomposing”. The “Hydrolysis in example composition on storage” value [6] was “minimal hydrolysis”.

For `CCCCCS(=O)(=O)n1nc(-c2ccco2)nc1SCCOCCOC` [I-5], the “Increase Proliferation of hFDPCs (%)” value [1] was “C (C represents more than a 40% increase in the proliferation of hFDPCs)”, the “Inhibition of CYP3A4 activity” value [7] was “potent inhibitory potential” and the “Production of intracellular ROS (oxidative stress)” value [8] was “Elevated levels of ROS”.

With `CCCS(=O)(=O)n1nc(-c2ccco2)nc1SC` [I-4] the “Increase Proliferation of hFDPCs (%)” value [1] was “B (B represents a 20-40% increase)”.

With `CCCCCS(=O)(=O)n1nc(-c2ccco2)nc1SCC` [I-6] the “Increase Proliferation of hFDPCs (%)” value [1] was “B (B represents a 20-40% increase)”.
